Reference: patent publication US20210186860A1, “Improved Delivery Systems for Moieties Including CBD Enhanced Combinations, Formulations and Chimeras” (LIFE TECH GLOBAL, LLC, priority 2017, published 2021)

Experiment: Transdermal flux / transdermal delivery from patch
Format: in vitro ADME
Settings: enhancer at 3% in PIB adhesive

Row | Structure (SMILES) | transdermal delivery from PIB
1 | CCCCCCCCCCCCN1CCCCCC1=O [Azon] | double
2 | CCCCCCCC/C=C\CCCCCCCC(=O)O [oleic acid] | double
